The record followed here is patent US20180021319A1, “COMPOSITIONS AND METHODS FOR TREATING GASTROINTESTINAL INFECTIONS” (The Regents of the University of California, priority 2015, published 2018).

The experiment relates to Helicobacter pylori. The experiment in a line: Dual therapy of AGN 201904 with amoxicillin to treat H. pylori infection. It is filed as in vivo. The conditions noted are these: AGN 201904 with amoxicillin alone (dual therapy), compared to standard H. pylori infection therapies.

Regarding `COc1ccc2c(c1)nc([S+]([O-])Cc1ncc(C)c(OC)c1C)n2S(=O)(=O)c1ccc(OCC(=O)O)cc1` (centres unmarked) [AGN 201904], the “H. pylori eradication rate” value is listed as “higher eradication rate” and the H. pylori resistance result is on record as “no H. pylori resistance”.
